Test results taken from patent publication US5114926A, “Tetrapeptide inhibiting the entry into cycle of hemopoietic stem cells processes for its preparation, and its uses” (Institut National De La Sante Et De La Recherche Medicale, priority 1986, dated 1992).
Values joined by “and” are separate entries in the source; they are usually repeats but may differ in a detail not shown here. Equal entries are not always repeated. Where a SMILES comes first, the peptide text is derived from it.

What was measured:
[1] = tested on: CFU-S; test: in vivo inhibition of the entry into cycle of the CFU-S induced by an injection of Ara-C; set-up: species or system mice of Balb/C or CBA strain; conditions: for % of CFU-S in DNA synthesis: protocol II, i.p.; for biological activity compared with the natural peptide: synthetic versus natural peptide, tables I, II and III
Experimental: The biological activity of the fractions is measured by in vivo inhibition tests of the entry into cycle of the CFU-S, induced by an injection of Ara-C.
The CFU-S of the mouse, normally quiescent, enter into cycle after an injection of Ara-C.
The number of CFU-S is determined by the technique of J. E. Till and E. A. McCulloch, Radiat. Res. 14, (1961), 213-222, whose principle rests on the capacity of CFU-S to form macroscopic colonies in the spleen. These colonies are clones descended from one CFU-S.
The proportion of CFU-S in S phase is determined by the method of A. J. Becker et al., Blood, 26, (1965), 296-308, based on the principle of cellular suicides. The incubation of the cells with a tritiated thymidine (precursor of DNA) solution leads to the selective death of the cells in phase of DNA synthesis by integration of a lethal dose of radioactivity (tritium) into the DNA molecule.
The tests are performed on SPF (Specific Pathogen Ffree)mice of Balb/C or CBA strain, aged from 2 to 3 months.
1. The control groups receive by the i.p. route the following treatment:
Time 0: Ara-C (10 mg--protocol I or 20 mg--protocol II) dissolved in 0.2 ml of saline;
Time 6H: 0.2 ml of saline;
Time 8H: sacrifice (protocol I);
Time 12H: sacrifice (protocol II).
2. The treated groups receive by the i.p. route:
Time 0: Ara-C (10 mg--protocol I or 20 mg--protocol II) dissolved in 0.2 ml of saline.
Time 6h: fraction to be tested dissolved in 0.2 ml of saline;
Time 8H: sacrifice (protocol I):
Time 12H: sacrifice (protocol II). [drawing 1]
For each of the groups, the bone marrow of the animals is collected and suspended in 2 ml of Medium 199 (EUROBIO). After the numbering and suitable dilution, 2 aliquots of 5×10^6 nucleated cells are incubated at 37° C. for 20 min. either with 1 ml of Medium 199 (Test A), or with 1 ml of tritiated thymidine (200 μCi) (Test B). A cellular suspension of 0.2 ml containing 8×10^4 to 1.2×10^5 nucleated cells is injected intravenously into the retro-orbital sinus of the irradiated receiver animals (9 Gy, 8 mice per experimental plot). Nine days later, the receiver mice are sacrificed, their spleen taken out and fixed in Bouin fluid (1% picric acid: 720 g; formol: 240 g; acetic acid: 4 g, per 1 l of fluid). After some hours of fixation, the nodules visible macroscopically are counted.
If N and N' are the average numbers of the nodules obtained on the spleens of the receivers having received cells coming form tests A and B respectively, the proportion of CFU-S in phase of DNA synthesis is calculated by the formula: [formula]

[2] = tested on: CFU-S; test: toxicity with respect to CFU-S; type: in vivo, mice; conditions: at the doses used
[3] = lethality in the treated mice; type: in vivo; conditions: at the doses used
[4] = tested on: EMT6 tumor; test: regression of EMT6 tumors under Ara-C plus inhibitor; type: in vivo, mice; conditions: EMT6 tumor carriers, Ara-C at 0, 7, 24 and 30 hours, inhibitor at 26 hours
[5] = survival of animals treated with lethal doses of Ara-C; type: in vivo, mice; conditions: Ara-C 4×925 mg/kg at 0, 7, 24 and 30 hours; tested fraction once at 26 hours
Experimental: The animals receive fractionated doses of Ara-C (4×925 mg/kg) at times 0, 7, 24 and 30 hours. The tested fraction is administered at once 26 hours after the first injection of Ara-C. The survival of the animals is estimated 15-30 days after the treatment.

Structure (SMILES): Nc1ccn([C@@H]2O[C@H](CO)[C@@H](O)[C@@H]2O)c(=O)n1 [Ara-C, cytosine arabinoside, reference compound]
- percentages of CFU-S in phase of DNA synthesis ([1]; ARA-C alone, Table III batch A series (5 exp.)): 40.7 ± 9.3%
- percentages of CFU-S in phase of DNA synthesis ([1]; ARA-C alone, Table III batch B series (2 exp.)): 47.4 ± 9%
- percentages of CFU-S in phase of DNA synthesis, mean ([1]; ARA-C alone, mean of Table II tests 1-8): 38.7%
- percentages of CFU-S in phase of DNA synthesis, mean ([1]; ARA-C alone, mean of Table III series A and B): 44.1%
- % of CFU-S in DNA synthesis ([1]; Ara-C (20 mg) alone): 43 ± 9%

Structure (SMILES): CC(=O)N[C@@H](CO)C(=O)N[C@@H](CC(=O)O)C(=O)N[C@@H](CCCCN)C(=O)N1CCC[C@H]1C(=O)O [inhibitor, n--acetyl-seryl-aspartyl-lysyl-proline] (Ac-SDKP-OH)
- toxicity with respect to CFU-S [2]: devoided of toxicity with respect to CFU-S
- lethality in the treated mice [3]: does not result in any lethality
- percentages of CFU-S in phase of DNA synthesis ([1]; ARA-C + natural peptide 100 ng/mouse, bone marrow batch A (5 exp.)): 12.6 ± 14.8%
- percentages of CFU-S in phase of DNA synthesis ([1]; ARA-C + natural peptide 100 ng/mouse, bone marrow batch B (2 exp.)): 2.99 ± 13%
- percentages of CFU-S in phase of DNA synthesis, mean ([1]; ARA-C + natural peptide, mean of batches A and B): 7.8%
- % of CFU-S in DNA synthesis ([1]; Ara-C (20 mg) + inhibitor (100 ng per mouse)): 7 ± 4%
- dosage at which the fraction is active in the mouse ([1]; homogeneous fraction after reverse phase HPLC): about 100 ng/mouse
- entry of the CFU-S into DNA synthesis (S phase) ([1]; inhibitor injected 6 hours after Ara-C): prevents the entry of the CFU-S into DNA synthesis
- effect on the therapeutic action of Ara-C with respect to tumor cells [4]: does not prevent the therapeutic action of Ara-C with respect to tumor cells
- survival of the treated animals ([4]; comparable with bone marrow grafting): permits the survival of the treated animals
- survival of the animals 15-30 days after the treatment [5]: enabled the definitive survival of a large number of animals

Structure (SMILES): CC(=O)N[C@@H](CO)C(=O)N[C@@H](CC(=O)O)C(=O)N[C@@H](CCCCN)C(=O)N1CCC[C@H]1C(=O)O [synthetic tetrapeptide, Ac-S-D-K-P--OH] (Ac-SDKP-OH)
- percentages of CFU-S in phase of DNA synthesis ([1]; ARA-C + synthetic tetrapeptide 25 ng/mouse, test 6, second synthesis): 19%
- percentages of CFU-S in phase of DNA synthesis ([1]; ARA-C + synthetic tetrapeptide 50 ng/mouse, test 5, second synthesis): 13%
- percentages of CFU-S in phase of DNA synthesis ([1]; ARA-C + synthetic tetrapeptide 100 ng/mouse, tests 4, 7, 8, second synthesis): 6% and 10%
- percentages of CFU-S in phase of DNA synthesis, mean ([1]; ARA-C + synthetic tetrapeptide, mean of tests 1-8 (25-100 ng/mouse)): 10.5%
- biological activity compared with the natural peptide [1]: possesses the biological properties of the natural peptide
- biological activity compared with the natural peptide ([1]; listed as synthetic peptide): quite similar activity to that obtained with a natural peptide
